In PubChem BioAssay AID179 (DTP/NCI, 2004) one finds EC50, IC50 and outcome data, which are given here for 55 compounds.

Values joined by “and” are separate entries in the source; they are usually repeats but may differ in a detail not shown here. Equal values may be shown once. Active and inactive are the calls of the source.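 How the source made its calls: active means compounds giving half or more protection of infected cells from virus-caused growth loss, again on retest; inactive means the rest.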

The test has as its system CEM cells HIV-1 protection, formazan growth assay. Briefly: NCI AIDS Antiviral Assay. Conditions: for IC50: measured here: growth of uninfected CEM cells. The gist of the method:
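Human CEM cells, uninfected and HIV-1-infected, exposed to five drug concentrations; growth measured by soluble formazan assay and scored as percent protection from infection, with protecting compounds retested.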

What is called EC50 is the concentration that produces a half-maximal response. What is called IC50 is the midpoint of a concentration-inhibition curve. Lower therefore signals higher potency. Regarding `Clc1c(Cl)c(Cl)c2c(nnn2C2CCCO2)c1Cl` (stereo unspecified), the EC50 was over 200 µM and the concentration for half-maximal inhibition (IC50) was 33.1 µM.

On to `O=C(CC1C(=O)Nc2ccccc2S1(=O)=O)Nc1cc(Cl)ccc1Cl` (stereo unspecified), for which the EC50 is over 18.2 µM and the IC50 is over 18.2 µM. As for `O=S1(=O)CS(=O)(=O)OCCCCO1`, the EC50 is over 1070 µM and the IC50 is 63.1 µM. As for `O=C(O)C12C3C4C1C1C2C3C1(Br)C41OCCO1` (stereo unspecified), the EC50 is over 832 µM and the half-inhibitory concentration (IC50) was over 832 µM.

For the compound `COc1ccc(N=Nc2c(N)nn3cc4c(nc23)-c2ccccc2C4)cc1`, the EC50 is over 200 µM. On to `Cn1c(=O)[nH]c2nccnc2c1=O`, for which the EC50 was over 200 µM and the IC50 is over 200 µM. Consider `O=C(Nc1ccccc1)N(C1=NCC(CI)S1)c1ccc(F)c(F)c1` (stereo unspecified), for which the EC50 is over 200 µM and the IC50 came out at 18.2 µM.

As for `CCCCCCCCC1=C(OC)C(=O)c2ccc(COC(C)=O)nc2C1=O`, the outcome was inactive. For `COc1ccccc1NC(=O)C1=C(C)NC(C)=C(C(=O)Nc2ccccc2OC)C1c1ccc([N+](=O)[O-])cc1`, the EC50 was over 9.77 µM and the 50% inhibitory concentration (IC50) was over 9.77 µM. On to `c1ccc2c(c1)ccn2CCc1c[nH]c2ccccc12`, for which the EC50 is over 200 µM and the IC50 is over 200 µM. Regarding `N#CS/C(Cl)=C(/C(Cl)=C(Cl)Cl)[N+](=O)[O-]`, the outcome was inactive. On to `O=c1[nH]c(=O)n(C2OC(CO)C(O)C2O)cc1OCc1ccccc1` (stereo unspecified), for which the EC50 is over 708 µM and the IC50 was over 708 µM. Consider `COc1ccc2nc3cccc([N+](=O)[O-])c3c(NCCNCCN(C)C)c2c1`, for which the EC50 was over 2 µM and the IC50 was determined as 0.105 µM. Taken in the same sequence, the figures for `O=[N+]([O-])c1cccc(S(=O)(=O)c2ccc(F)c([N+](=O)[O-])c2)c1` were over 200 µM and 0.501 µM. The corresponding values for `O=c1/c(=C/c2ccccc2[N+](=O)[O-])sc2nc3ccccc3n12` are over 3.24 µM and over 3.24 µM. The corresponding values for `C=CCN1C(=O)C(c2ccccc2)(c2ccccc2)NC1=S` are over 85.1 µM and over 85.1 µM.

Turning to `O=C1/C(=C/c2ccco2)NC(=S)N1CN1CCCCC1`, the EC50 is over 200 µM and the IC50 was 32.4 µM.

Take `O=c1c2ccccc2[se]n1-c1ccccn1`: the concentration giving a half-maximal response (EC50) was 7.76 µM and the IC50 came to 16.2 µM.

With `O=S(=O)(O)c1ccc(NN(c2c(O)ccc3ccccc23)S(=O)(=O)O)cc1`, the EC50 was over 550 µM and the IC50 is 229 µM. Turning to `O=c1c(C=Nc2ccccc2Cl)c(O)n(-c2ccccc2)c(=O)n1-c1ccccc1`, the result was inactive. As to `N#CCCC(CC#N)N1CCN(C(CC#N)CCC#N)CC1` (stereo unspecified), the EC50 was over 200 µM and the IC50 is over 200 µM. Turning to `CC1=NN(c2ccccc2)C(=O)C1N=Nc1ccc(S(N)(=O)=O)cc1` (stereo unspecified), the result was inactive.

With `Cc1cc2c(=O)c(C)n[nH]c2c(C#N)c1C`, the EC50 is over 1170 µM and the IC50 came to 178 µM. Taken in the same sequence, the figures for `CC1(C)NC(=O)C2(CC(O)C(O)C(OC(=O)c3ccccc3)C2)O1` (stereo unspecified) were over 263 µM and over 263 µM.

Take `O=S(=O)(O)C(O)CC=C(C(O)S(=O)(=O)O)C(O)S(=O)(=O)O` (stereo unspecified): the EC50 was over 200 µM and the IC50 amounted to 81.3 µM. The corresponding values for `Cc1ccc(S(=O)(=O)NN=C2C(C)(C)CC2(C)C)cc1` are over 200 µM and over 200 µM.

On to `CCN(CC)CC(C(C)=O)C(c1ccccc1)c1c(O)c2ccccc2oc1=O` (stereo unspecified), for which the EC50 was over 43.7 µM and the IC50 was over 43.7 µM. Take `N#Cc1ccsc1C#N`: the EC50 is over 200 µM and the IC50 is over 200 µM. As for `CN(C)c1ccc(/C=C/C=C2\C=Cc3ccccc32)cc1`, the EC50 is over 36.3 µM and the IC50 was over 36.3 µM.

For `Oc1ccc(Cl)cc1-c1nc2ccccc2s1`, the EC50 is over 138 µM and the IC50 was determined as 75.9 µM. Turning to `CN(C)C(C1=C(O)C(c2ccccc2)N(c2ccccc2)C1=O)N1CCOCC1` (stereo unspecified), the result was inactive. For the compound `Cc1ccnc2c1c(=O)c1ccccc1n2C`, the EC50 was over 151 µM and the IC50 came out at 41.7 µM. As for `CCN(CC)C(=O)Cn1c(-c2ccccc2)cc2ccccc21`, the EC50 is over 200 µM and the IC50 came to 40.7 µM. On to `O=C(CC1C(=O)Nc2ccccc2S1(=O)=O)Nc1ccc(Cl)cc1` (stereo unspecified), for which the EC50 was over 5.5 µM and the half-inhibitory concentration (IC50) was over 5.5 µM. In the case of `O=[N+]([O-])c1ccc(Cl)cc1C=NC12CC3CC(CC(C3)C1)C2`, the EC50 is over 200 µM and the IC50 came to 11.5 µM. The corresponding values for `O=C(Nc1ccc(CCC2=NCCCN2)cc1)c1ccc(C(=O)Nc2ccc(CCC3=NCCCN3)cc2)cc1` are 42.7 µM and 158 µM. Turning to `O=S(=O)(NC(c1ccccc1)(c1cc2ccccc2[nH]1)c1cc2ccccc2n1S(=O)(=O)c1ccccc1)c1ccccc1` (stereo unspecified), the EC50 is over 200 µM and the IC50 is over 200 µM.

As to `O=C(c1ccccc1)c1cccc(C(=O)c2ccccc2)c1`, the EC50 was over 25.1 µM and the concentration for half-maximal inhibition (IC50) is over 25.1 µM.

Turning to `O=C1c2ccccc2C2(c3ccc(Cl)cc3)N[C@@H]3CCCC[C@@H]3N12` (stereo partly specified), the EC50 is over 200 µM and the IC50 was over 200 µM. Take `CC1(C)Oc2ccc3c(=O)cc(-c4cccs4)oc3c2C1C(=O)O` (stereo unspecified): the EC50 was over 200 µM and the IC50 is over 200 µM. As to `CC(=N\NC(=O)c1ccccc1)/C(C)=N/NC(=O)c1ccccc1`, the EC50 is over 30.9 µM and the IC50 was over 30.9 µM.

With `O=C(NN1C(=O)C(Cl)C1c1c(O)ccc2ccccc12)c1ccccc1O` (stereo unspecified), the EC50 is over 67.6 µM and the concentration for half-maximal inhibition (IC50) is over 67.6 µM. For `N#C/C(C(=O)Nc1ccc(Cl)cc1)=C(/N)N1CCCCC1`, the EC50 was over 200 µM and the IC50 was over 200 µM. For the compound `CC(=O)c1c(-c2cccc3ccccc23)c(C#N)c(=S)n(C2OC(CO)C(O)C(O)C2O)c1C` (stereo unspecified), the EC50 was over 200 µM; the IC50 is 132 µM and 53.7 µM. On to `CC1(O)CSc2c(C=O)c3ccccc3n21` (stereo unspecified), for which the EC50 is over 1070 µM and the IC50 amounted to 67.6 µM. Taken in the same sequence, the figures for `O=C(O)c1ccc(O)c(N=Nc2cc(S(=O)(=O)O)c3cccnc3c2O)c1` were 81.3 µM and 224 µM. The corresponding values for `CC(CCC(=O)O)CCC(=O)O` are over 1450 µM and over 1450 µM. Regarding `CC(=O)N(C(C)=O)c1c(N)n(C)c(=O)[nH]c1=O`, the outcome was inactive.

As to `Cc1cc2c3c(nc2c2cc[nH]c(C)c12)CCCC3`, the EC50 is over 200 µM and the IC50 was 3.63 µM. Turning to `C=C1N(C=O)C(C)(C)N(O)C1(C)C`, the EC50 is over 200 µM and the half-inhibitory concentration (IC50) is over 200 µM. For `COc1ccc2c(c1)NC(=O)C(O)(Cc1ccccc1)C2=O` (stereo unspecified), the EC50 was over 200 µM and the IC50 is over 200 µM.

With `CC(C)(C)C1=CC(O)(c2c3ccccc3c(C3(O)C=C(C(C)(C)C)C(=O)C(C(C)(C)C)=C3)c3ccccc23)C=C(C(C)(C)C)C1=O`, the EC50 was over 100 µM and the IC50 was over 100 µM. With `COC(=O)c1ccccc1C1CN=NC12Cc1ccc3c(c1C2=O)CCC3` (stereo unspecified), the EC50 was over 200 µM. Take `N#CC(C#N)=c1[nH]c2cccc3c2-c2c(cccc2c3=C(C#N)C#N)[nH]1`: the result was inactive. With `CCN=C1Nc2ccccc2-n2c(nn3nc4ccccc4c23)N1CC`, the concentration for a half-maximal effect (EC50) is 5.37 µM and the IC50 is over 200 µM.
